Results taken from ChEMBL document CHEMBL1201862, “PubChem BioAssay data set” (2004).
Structures can show the parent of a compound that is named as a salt.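 Values below derive from 48-hour exposures of cells grown in 96-well plates, with endpoints linearly interpolated between the two concentrations bracketing the appropriate inhibition level. GI50 is the concentration that inhibits growth by half.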 Active and inactive are the calls of the source. Rule as the data show it: active = GI50 up to about 1.1 µM and inactive = higher.

Tests used:
Assay in all cases: inhibition of tumour cell growth, NCI panel, 48 h
SF-268 = test system: SF-268
EKVX = test system: EKVX
MDA-MB-435 = test system: MDA-MB-435
T47D = test system: T47D
CCRF-CEM = test system: CCRF-CEM
MDA-MB-231 = test system: MDA-MB-231
SN12C = test system: SN12C
OVCAR-5 = test system: OVCAR-5
DU-145 = test system: DU-145
NCI-H522 = test system: NCI-H522
MCF7 = test system: MCF7
A498 = test system: A498
U-251 = test system: U-251
HCT-116 = test system: HCT-116
M14 = test system: M14
UACC-62 = test system: UACC-62
UACC-257 = test system: UACC-257
HCC 2998 = test system: HCC 2998
MOLT-4 = test system: MOLT-4
SF-539 = test system: SF-539

SMILES	GI50 (SF-268)	GI50 (EKVX)	GI50 (MDA-MB-435)	GI50 (T47D)	GI50 (CCRF-CEM)	GI50 (MDA-MB-231)	GI50 (SN12C)	GI50 (OVCAR-5)	GI50 (DU-145)	GI50 (NCI-H522)	GI50 (MCF7)	GI50 (A498)	GI50 (U-251)	GI50 (HCT-116)	GI50 (M14)	GI50 (UACC-62)	GI50 (UACC-257)	GI50 (HCC 2998)	GI50 (MOLT-4)	GI50 (SF-539)
COc1ccc(Cc2ccccc2C(=O)O)c2ccccc12	22.8 µM (inactive)	26.4 µM (inactive)	22 µM (inactive)	44.4 µM (inactive)	26.1 µM (inactive)	32 µM (inactive)	29.2 µM (inactive)	24.3 µM (inactive)	37.5 µM (inactive)	20.3 µM (inactive)	38.1 µM (inactive)	22.8 µM (inactive)	25.7 µM (inactive)	20.7 µM (inactive)	35.6 µM (inactive)	16.3 µM (inactive)	24.7 µM (inactive)	–	–	–
COc1ccc(-n2sc3ncc(C)cc3c2=O)cc1	20.9 µM (inactive)	18.3 µM (inactive)	18.8 µM (inactive)	17.5 µM (inactive)	10.6 µM (inactive)	17 µM (inactive)	16.1 µM (inactive)	20.1 µM (inactive)	21.7 µM (inactive)	20.6 µM (inactive)	23.7 µM (inactive)	–	22.4 µM (inactive)	18.3 µM (inactive)	18.7 µM (inactive)	17.5 µM (inactive)	–	62.2 µM (inactive)	29.3 µM (inactive)	–
O=C(c1ccsc1)c1nccc2c1cnc1ccccc12	77.3 µM (inactive)	15.6 µM (inactive)	> 100 µM (inactive)	> 100 µM (inactive)	> 100 µM (inactive)	61 µM (inactive)	> 100 µM (inactive)	49.8 µM (inactive)	> 100 µM (inactive)	12.7 µM (inactive)	47.2 µM (inactive)	75 µM (inactive)	85.1 µM (inactive)	62.1 µM (inactive)	> 100 µM (inactive)	65.6 µM (inactive)	45.2 µM (inactive)	–	4.44 µM (inactive)	> 100 µM (inactive)
CCN(CC)CCn1c(=O)c2cccnc2n2c3c(=O)n(C)c(=O)n(C)c3nc12	> 100 µM (inactive)	> 100 µM (inactive)	> 100 µM (inactive)	> 100 µM (inactive)	64.6 µM (inactive)	> 100 µM (inactive)	> 100 µM (inactive)	> 100 µM (inactive)	> 100 µM (inactive)	> 100 µM (inactive)	45.1 µM (inactive)	–	> 100 µM (inactive)	47.8 µM (inactive)	> 100 µM (inactive)	57 µM (inactive)	> 100 µM (inactive)	72.4 µM (inactive)	34.7 µM (inactive)	85.1 µM (inactive)
COc1ccc(-c2cc(-c3cc(C)cc(Br)c3O)no2)cc1	4.17 µM (inactive)	25.2 µM (inactive)	15.9 µM (inactive)	5.38 µM (inactive)	> 10 µM (inactive)	12.4 µM (inactive)	7.59 µM (inactive)	30.4 µM (inactive)	16.6 µM (inactive)	3.98 µM (inactive)	15.7 µM (inactive)	3.03 µM (inactive)	5.66 µM (inactive)	10.3 µM (inactive)	25.6 µM (inactive)	6.47 µM (inactive)	11 µM (inactive)	–	13.5 µM (inactive)	5.74 µM (inactive)
COC(=O)/C=C/c1ccc2nncnc2c1.COC(=O)/C=C\c1ccc2nncnc2c1	75.7 µM (inactive)	> 100 µM (inactive)	17.9 µM (inactive)	98.4 µM (inactive)	> 100 µM (inactive)	> 100 µM (inactive)	> 100 µM (inactive)	> 100 µM (inactive)	28.7 µM (inactive)	28.5 µM (inactive)	42.5 µM (inactive)	71.8 µM (inactive)	79.1 µM (inactive)	81.5 µM (inactive)	21 µM (inactive)	15.7 µM (inactive)	16.9 µM (inactive)	–	55.6 µM (inactive)	31.9 µM (inactive)
NC(CC(=O)O)(Cc1ccccc1)C(=O)O (configuration not stated)	–	> 100 µM (inactive)	> 100 µM (inactive)	> 100 µM (inactive)	> 100 µM (inactive)	> 100 µM (inactive)	> 100 µM (inactive)	> 100 µM (inactive)	> 100 µM (inactive)	> 100 µM (inactive)	> 100 µM (inactive)	> 100 µM (inactive)	> 100 µM (inactive)	> 100 µM (inactive)	> 100 µM (inactive)	> 100 µM (inactive)	> 100 µM (inactive)	–	> 100 µM (inactive)	> 100 µM (inactive)
Cn1c2c(c3ccccc31)CCN1C(=O)C3SC21C1C(=O)N(c2ccccc2)C(=O)C31 (configuration not stated)	> 100 µM (inactive)	> 100 µM (inactive)	> 100 µM (inactive)	> 100 µM (inactive)	–	> 100 µM (inactive)	> 100 µM (inactive)	> 100 µM (inactive)	> 100 µM (inactive)	> 100 µM (inactive)	30.4 µM (inactive)	26.4 µM (inactive)	> 100 µM (inactive)	> 100 µM (inactive)	> 100 µM (inactive)	21.5 µM (inactive)	20 µM (inactive)	–	38.5 µM (inactive)	39.7 µM (inactive)
CSc1ncnc2c1ncn2C1OC(CO)C(O)OC1O (configuration not stated)	7.69 µM (inactive)	0.624 µM (active)	1.7 µM (inactive)	0.612 µM (active)	0.0579 µM (active)	0.396 µM (active)	1.06 µM (active)	2.01 µM (inactive)	0.697 µM (active)	3.34 µM (inactive)	0.262 µM (active)	1.11 µM (active)	9.35 µM (inactive)	0.4 µM (active)	1.14 µM (inactive)	2.96 µM (inactive)	0.902 µM (active)	–	0.281 µM (active)	1.73 µM (inactive)
Cc1cn(CCCCOC(=O)NC(CCCNC(N)=O)C(=O)O)c(=O)[nH]c1=O (configuration not stated)	> 100 µM (inactive)	> 100 µM (inactive)	> 100 µM (inactive)	> 100 µM (inactive)	> 100 µM (inactive)	> 100 µM (inactive)	> 100 µM (inactive)	> 100 µM (inactive)	> 100 µM (inactive)	–	> 100 µM (inactive)	–	> 100 µM (inactive)	> 100 µM (inactive)	> 100 µM (inactive)	> 100 µM (inactive)	> 100 µM (inactive)	> 100 µM (inactive)	> 100 µM (inactive)	> 100 µM (inactive)
CCOc1cc(-c2nc3ccccn3c2/N=C/c2cc(Br)ccc2O)ccc1O	19.1 µM (inactive)	23 µM (inactive)	66.8 µM (inactive)	2.37 µM (inactive)	> 100 µM (inactive)	30.5 µM (inactive)	31.3 µM (inactive)	73.5 µM (inactive)	12.5 µM (inactive)	35.9 µM (inactive)	13.9 µM (inactive)	31.6 µM (inactive)	17.5 µM (inactive)	30.8 µM (inactive)	36.1 µM (inactive)	23.9 µM (inactive)	18.1 µM (inactive)	–	45.7 µM (inactive)	29.6 µM (inactive)
CC/C=C/C(CC)C/C(C)=C\[C@]1(CC)C[C@H](CC)[C@H](CC(=O)O)OO1 (some centres not stated)	1.39 µM (inactive)	–	1.46 µM (inactive)	1.34 µM (inactive)	0.105 µM (active)	1.76 µM (inactive)	1.59 µM (inactive)	1.29 µM (inactive)	0.451 µM (active)	0.178 µM (active)	1.77 µM (inactive)	1.53 µM (inactive)	0.491 µM (active)	0.41 µM (active)	1.64 µM (inactive)	1.66 µM (inactive)	3.42 µM (inactive)	–	0.151 µM (active)	1.51 µM (inactive)
Cc1nc2c(cc1C(=O)N/N=C/c1ccc([N+](=O)[O-])cc1)c(=O)n(C)c(=O)n2C	25.4 µM (inactive)	91.2 µM (inactive)	> 100 µM (inactive)	80.4 µM (inactive)	> 100 µM (inactive)	22.1 µM (inactive)	> 100 µM (inactive)	> 100 µM (inactive)	94.6 µM (inactive)	–	> 100 µM (inactive)	–	19.2 µM (inactive)	56.4 µM (inactive)	> 100 µM (inactive)	> 100 µM (inactive)	> 100 µM (inactive)	> 100 µM (inactive)	> 100 µM (inactive)	–
O=C(/C=C/c1ccc(O)c(-c2cc(C(=O)/C=C/c3ccc(O)cc3)c(O)cc2O)c1)c1ccc(O)cc1O [RHUSCHALCONE VI]	17.5 µM (inactive)	> 50 µM (inactive)	21.4 µM (inactive)	33.3 µM (inactive)	10.1 µM (inactive)	29.7 µM (inactive)	20.4 µM (inactive)	> 50 µM (inactive)	40.5 µM (inactive)	37.4 µM (inactive)	20.2 µM (inactive)	> 50 µM (inactive)	15.8 µM (inactive)	11.5 µM (inactive)	49.1 µM (inactive)	9.16 µM (inactive)	> 50 µM (inactive)	–	16.1 µM (inactive)	11.7 µM (inactive)
CN1[C@@H]2C[C@@H](OC(=O)[C@H](CO)c3ccccc3)C[C@H]1[C@@H]1O[C@@H]12 [SCOPOLAMINE HYDROBROMIDE]	–	> 100 µM (inactive)	> 100 µM (inactive)	> 100 µM (inactive)	> 100 µM (inactive)	> 100 µM (inactive)	> 100 µM (inactive)	> 100 µM (inactive)	> 100 µM (inactive)	> 100 µM (inactive)	> 100 µM (inactive)	> 100 µM (inactive)	–	> 100 µM (inactive)	> 100 µM (inactive)	> 100 µM (inactive)	> 100 µM (inactive)	–	> 100 µM (inactive)	–
